The record followed here is patent US20250195475A1, “CDK2 INHIBITOR AND PREPARATION METHOD AND USE THEREOF” (INVENTISBIO CO., LTD., priority 2022, published 2025).

One test addresses CDK2/CyclinE1 (Homo sapiens (Human), UniProt P24941). The test is described as follows: CDK2 kinase assay (TR-FRET). The conditions noted are these: CDK2/CyclinE1 0.5 nM, ATP 50 μM. The class given is biochemical. A digest of the protocol: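 Compounds were preincubated 10 min at room temperature with enzyme in 50 mM HEPES pH 7.5, 10 mM MgCl2, 1 mM EGTA, 2 mM DTT, 0.01% Tween-20, BSA. Substrate reaction ran 30 min at 25 °C, was stopped with EDTA and read by LANCE TR-FRET (ex 320/em 665 nm) after 1 h. IC50 came from a four-parameter fit of % inhibition.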

For a further test, the target named is CDK1/CyclinB1 (Homo sapiens (Human), UniProt P06493). The test is described as follows: CDK1 kinase assay (TR-FRET). The test is classed as biochemical. The conditions noted are these: CDK1/CyclinB 7.5 nM, ATP 17 μM. Here is the method:
(§1) The purpose of these assays is to evaluate the inhibition of small molecule inhibitors by using TR-FRET assay.
(§2) Compound Preparation. Dissslove the compounds into DMSO solution to make 10 mM DMSO stock. Serially dilute the stock solution from highest concentration down to lowest in DMSO to make the compound stock plate (100× stock plates). To make 5× compound intermediate plate, add 38 μL of assay buffer (50 mM HEPES, pH 7.5, 0.05 mg/mL BSA, 10 mM MgCl2, 1 mM EGTA, 0.01% Tween-20, 2 mM DTT) into each well of the V-bottom plate; then transfer 2 μL of the stock compound solution of each concentration from the compound stock plate (100× stock), and mix well.
(§3) Enzyme reaction. Transfer 2 μL compound from 5× intermediate plate into assay plate, then add 4 μL/well 2.5× Enzyme mix to assay plate, incubation for 10 min at room temperature. For positive control wells, add 4 μL/well assay buffer instead of Enzyme mix. Then add 4 μL/well 2.5× Substrate mix to assay plate, and incubation at 25° C. for 30 min at room temperature. After reaction, 10 μL 2× Detection mix (final 15 mM EDTA, 1× LANCE Detection Buffer, 0.5 nM Detection antibody) was added and incubated for 1 h prior to detection with excitation and emission at 320 and 665 nm (Tecan Spark® TR-FRET mode Tecan).
(§4) Inhibition rate (IR) of the tested compounds was determined by the following formula: IR (%)=(average High control−compound well)/(average High control−average Low control)*100%. Fit the compound IC50 from non-linear regression equation: Y=Bottom+(Top−Bottom)/(1+10^((Log IC50−X)*HillSlope)). X: Log of cpd concentration; Y: Inhibition rate (TR); Top and Bottom: Plateaus in same units as Y, log IC50: same log units as X; HillSlope: Slope factor or Hill slope.

The target of another test is CDK9/CyclinT1 (Homo sapiens (Human), UniProt P50750). In words: CDK9 kinase assay (TR-FRET). The test is classed as biochemical. The conditions noted are these: CDK9/CyclinT1 1.0 nM, ATP 3.5 μM. Here is the method: as §1, §2, §3, §4
Chain of CDK9/CyclinT1 (P50750 whole entry): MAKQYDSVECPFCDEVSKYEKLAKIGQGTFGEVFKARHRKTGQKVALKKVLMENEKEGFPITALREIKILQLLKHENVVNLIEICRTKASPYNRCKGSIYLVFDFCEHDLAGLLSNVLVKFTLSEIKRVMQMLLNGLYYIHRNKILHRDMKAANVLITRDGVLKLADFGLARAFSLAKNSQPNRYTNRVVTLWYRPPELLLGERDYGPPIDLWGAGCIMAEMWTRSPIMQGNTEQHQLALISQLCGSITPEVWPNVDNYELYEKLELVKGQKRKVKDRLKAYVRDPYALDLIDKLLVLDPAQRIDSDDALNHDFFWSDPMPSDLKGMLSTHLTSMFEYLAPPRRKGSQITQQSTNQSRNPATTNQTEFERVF
Chain of CDK9/CyclinT1 (O60563 whole entry partner): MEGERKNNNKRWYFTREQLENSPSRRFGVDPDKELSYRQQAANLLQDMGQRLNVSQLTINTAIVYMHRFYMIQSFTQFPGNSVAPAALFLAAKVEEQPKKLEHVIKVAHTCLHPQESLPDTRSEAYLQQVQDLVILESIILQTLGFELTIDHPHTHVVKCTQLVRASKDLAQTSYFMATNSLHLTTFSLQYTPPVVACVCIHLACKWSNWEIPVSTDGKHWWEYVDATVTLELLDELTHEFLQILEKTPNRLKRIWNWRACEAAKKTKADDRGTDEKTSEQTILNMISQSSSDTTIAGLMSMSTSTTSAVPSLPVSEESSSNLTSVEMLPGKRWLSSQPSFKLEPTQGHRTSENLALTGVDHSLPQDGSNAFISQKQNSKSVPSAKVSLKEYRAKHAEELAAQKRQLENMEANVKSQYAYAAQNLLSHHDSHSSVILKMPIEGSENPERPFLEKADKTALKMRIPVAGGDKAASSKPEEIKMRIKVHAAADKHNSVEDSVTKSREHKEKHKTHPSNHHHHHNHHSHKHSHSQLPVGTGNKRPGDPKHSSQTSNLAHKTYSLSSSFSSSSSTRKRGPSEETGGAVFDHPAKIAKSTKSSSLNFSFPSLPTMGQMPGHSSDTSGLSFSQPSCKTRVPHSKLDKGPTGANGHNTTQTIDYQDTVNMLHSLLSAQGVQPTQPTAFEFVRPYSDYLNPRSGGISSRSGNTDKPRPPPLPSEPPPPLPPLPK
A further test deals with CDK4/CyclinD1 (Homo sapiens (Human), UniProt P11802). In words: CDK4 kinase assay (TR-FRET). The class given is biochemical. The conditions noted are these: CDK4/CyclinD1 0.50 nM, ATP 225 μM. The procedure: as §1, §2, §3, §4
Chain of CDK4/CyclinD1 (P11802 whole entry): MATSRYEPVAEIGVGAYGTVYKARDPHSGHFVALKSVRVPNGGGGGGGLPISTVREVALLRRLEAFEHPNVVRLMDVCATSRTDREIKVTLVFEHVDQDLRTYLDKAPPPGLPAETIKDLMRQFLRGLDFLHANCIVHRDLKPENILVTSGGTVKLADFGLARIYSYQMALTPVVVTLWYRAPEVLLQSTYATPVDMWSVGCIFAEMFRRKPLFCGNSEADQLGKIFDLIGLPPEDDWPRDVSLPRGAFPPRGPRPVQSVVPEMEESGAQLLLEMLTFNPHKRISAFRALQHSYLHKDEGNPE
Chain of CDK4/CyclinD1 (P24385 whole entry partner): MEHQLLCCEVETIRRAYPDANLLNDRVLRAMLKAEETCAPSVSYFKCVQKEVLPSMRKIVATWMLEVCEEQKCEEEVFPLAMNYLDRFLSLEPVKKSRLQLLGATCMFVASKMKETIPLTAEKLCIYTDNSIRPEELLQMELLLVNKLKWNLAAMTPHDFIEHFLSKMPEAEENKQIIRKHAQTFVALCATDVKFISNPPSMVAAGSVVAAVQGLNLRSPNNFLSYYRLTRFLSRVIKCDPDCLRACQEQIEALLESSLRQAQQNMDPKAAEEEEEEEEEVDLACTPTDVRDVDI
The target of a further test is CDK6/CyclinD3 (Homo sapiens (Human), UniProt Q00534). The test is described as follows: CDK6 kinase assay (TR-FRET). The class given is biochemical. As to conditions: CDK6/CyclinD3 0.50 nM, ATP 140 μM. The procedure: as §1, §2, §3, §4
Chain of CDK6/CyclinD3 (Q00534 whole entry): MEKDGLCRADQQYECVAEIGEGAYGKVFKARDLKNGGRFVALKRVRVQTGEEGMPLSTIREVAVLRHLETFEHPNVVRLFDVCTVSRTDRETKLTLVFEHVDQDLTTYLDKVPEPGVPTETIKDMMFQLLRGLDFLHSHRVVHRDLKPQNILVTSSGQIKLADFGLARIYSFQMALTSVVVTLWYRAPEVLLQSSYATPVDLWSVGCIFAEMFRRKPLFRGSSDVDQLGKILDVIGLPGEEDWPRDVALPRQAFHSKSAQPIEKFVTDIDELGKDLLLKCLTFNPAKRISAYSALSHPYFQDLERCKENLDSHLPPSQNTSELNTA
Chain of CDK6/CyclinD3 (P30281 whole entry partner): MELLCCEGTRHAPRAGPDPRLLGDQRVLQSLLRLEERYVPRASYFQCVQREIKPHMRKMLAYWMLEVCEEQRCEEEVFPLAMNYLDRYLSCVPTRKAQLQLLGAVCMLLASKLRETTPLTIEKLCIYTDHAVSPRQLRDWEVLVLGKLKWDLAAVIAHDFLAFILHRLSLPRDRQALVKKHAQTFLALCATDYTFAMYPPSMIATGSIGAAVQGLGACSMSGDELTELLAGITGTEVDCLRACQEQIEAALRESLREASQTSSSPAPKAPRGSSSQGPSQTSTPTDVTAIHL
A further test deals with GSK3β (Homo sapiens (Human), UniProt P49841). In words: GSK3β kinase assay (TR-FRET). The conditions noted are these: GSK3β 1.0 nM, ATP 8.0 μM. The class given is biochemical. The procedure:
as §1, §2, §3, §4

The test system of another test is OVCAR3 cancer cells. In words: OVCAR3 proliferation assay (CellTiter-Glo). The class given is cell-based. The conditions noted are these: Homo sapiens, OVCAR-3, 144 h, 6 days incubation, read-out: OVCAR3 CTG IC50. Here is the method:
The OVCAR3 cancer cells were cultured at temperature 37° C., 5% CO2 incubator. The cells were routinely subcultured. The cells growing in an exponential growth phase were harvested and counted for plating. Plate 100 μL of cell suspension into the assay plates. Incubate the assay plates at 37° C., 5% CO2, 95% air and 100% relative humidity overnight. The compounds to be tested were dissolved in dimethyl sulfoxide and prepared with a stock concentration of 10 mM. Serially dilute the stock solution from highest concentration down to lowest in DMSO to make the compound stock plate (200× stock plates). Add 0.5 μL of the 200× compound of each well into the cells in assay plates. The final DMSO concentration was 0.5%. Return the assay plate into incubator and incubate for 6 days. The procedures were performed according to the Promega CellTiter-Glo Luminescent Cell Viability Assay Kit to detect cell viability.
Inhibition rate (IR) of the tested compounds was determined by the following formula: IR (%)=(average High control−compound well)/(average High control−average Low control)*100%. Fit the compound IC50 from non-linear regression equation: Y=Bottom+(Top−Bottom)/(1+10^((Log IC50−X)*HillSlope)). X: Log of cpd concentration; Y: Inhibition rate (IR); Top and Bottom: Plateaus in same units as Y; log IC50: same log units as X; HillSlope: Slope factor or Hill slope.

Chain of CDK1/CyclinB1 (P06493 whole entry): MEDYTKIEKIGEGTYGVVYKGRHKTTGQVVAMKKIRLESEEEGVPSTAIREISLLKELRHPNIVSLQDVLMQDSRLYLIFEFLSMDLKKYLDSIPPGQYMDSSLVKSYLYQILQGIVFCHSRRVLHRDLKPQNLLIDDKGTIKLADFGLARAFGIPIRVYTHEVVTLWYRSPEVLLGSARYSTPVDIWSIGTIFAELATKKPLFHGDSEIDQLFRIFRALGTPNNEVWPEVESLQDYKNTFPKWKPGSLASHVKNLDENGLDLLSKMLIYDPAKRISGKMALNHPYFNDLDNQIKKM
Chain of CDK1/CyclinB1 (P14635 whole entry partner): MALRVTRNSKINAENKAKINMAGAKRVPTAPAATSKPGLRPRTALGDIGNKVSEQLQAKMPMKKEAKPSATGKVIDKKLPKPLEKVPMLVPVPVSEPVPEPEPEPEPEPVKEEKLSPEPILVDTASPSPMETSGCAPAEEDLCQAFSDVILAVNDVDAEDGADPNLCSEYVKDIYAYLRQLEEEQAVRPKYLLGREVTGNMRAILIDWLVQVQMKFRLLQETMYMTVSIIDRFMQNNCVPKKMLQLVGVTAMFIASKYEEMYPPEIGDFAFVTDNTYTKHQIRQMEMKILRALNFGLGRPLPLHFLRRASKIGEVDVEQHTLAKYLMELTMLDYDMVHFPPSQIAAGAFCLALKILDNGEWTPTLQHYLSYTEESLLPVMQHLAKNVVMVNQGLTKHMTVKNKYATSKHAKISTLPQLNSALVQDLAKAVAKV
Chain of GSK3β (P49841 whole entry): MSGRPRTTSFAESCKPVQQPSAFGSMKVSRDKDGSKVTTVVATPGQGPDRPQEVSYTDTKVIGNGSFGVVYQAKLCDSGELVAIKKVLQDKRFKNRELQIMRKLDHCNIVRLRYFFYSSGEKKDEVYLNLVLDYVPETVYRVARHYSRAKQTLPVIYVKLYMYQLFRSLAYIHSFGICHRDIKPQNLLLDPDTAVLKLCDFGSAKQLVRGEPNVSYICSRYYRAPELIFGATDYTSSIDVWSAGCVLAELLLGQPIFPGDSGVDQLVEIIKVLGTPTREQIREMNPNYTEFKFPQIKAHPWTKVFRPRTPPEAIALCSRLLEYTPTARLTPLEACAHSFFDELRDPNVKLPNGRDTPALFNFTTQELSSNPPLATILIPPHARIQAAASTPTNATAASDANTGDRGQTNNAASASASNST

Regarding `Cn1nccc1C(=O)Nc1cc([C@H]2CC[C@@H](OC(=O)NC3COC4(CCC4)C3)C2)[nH]n1` (single isomer, unassigned) [Compound 44], the results for the IC50 against CDK2/CyclinE1 and at CDK1/CyclinB1 were 3.2 nM and 255 nM, respectively.
With `CC(C)NC(=O)O[C@@H]1CC[C@H](c2cc(NC(=O)C3CC(C)N(S(C)(=O)=O)C3)n[nH]2)C1` (single isomer, unassigned) [Compound 143], the IC50 was 1.2 nM at CDK2/CyclinE1, 60.9 nM at CDK1/CyclinB1 and 1000 nM at CDK9/CyclinT1.
In the case of `CC(C)NC(=O)OC1COC(c2cc(NC(=O)Cc3cc(F)cc(F)c3)n[nH]2)C1` (centres unmarked) [Compound 24], the half-maximal inhibitory concentration (IC50) on CDK2/CyclinE1 turned out to be 1.8 nM; against CDK1/CyclinB1 it was 102 nM.
With `CC(C)NC(=O)O[C@@H]1CC[C@H](c2cc(NC(=O)[C@@H]3CCN(S(C)(=O)=O)C3)n[nH]2)C1` [Compound 25], the IC50 worked out at 1.2 nM against CDK2/CyclinE1, 54.9 nM against CDK1/CyclinB1, 510 nM at CDK4/CyclinD1 and 899 nM against CDK6/CyclinD3.
On the same counts, the results for `CC[C@H](C)NC(=O)O[C@@H]1CC[C@H](c2cc(NC(=O)[C@H]3C[C@@H]3COC)n[nH]2)C1` [Compound 33] are 1.9 nM, 118 nM, 652 nM and 574 nM.
Regarding `C#C[C@H]1C[C@@H]1C(=O)Nc1cc([C@H]2CC[C@@H](OC(=O)NC(C)C)C2)[nH]n1` [Compound 41], the half-maximal inhibitory concentration (IC50) on CDK2/CyclinE1 is 0.9 nM; at CDK4/CyclinD1 it was 306 nM; against CDK6/CyclinD3, 254 nM; against GSK3β it was 572 nM; in the test on OVCAR3 cancer cells it was 193 nM.
Consider `CCS(=O)(=O)N1CC[C@@H](C(=O)Nc2cc([C@H]3CC[C@@H](OC(=O)NC(C)C)C3)[nH]n2)C1` [Compound 49], for which the concentration for half-maximal inhibition (IC50) on CDK2/CyclinE1 was 2.2 nM; on CDK1/CyclinB1, 132 nM; against GSK3β, 395 nM.
Consider `CC1(NC(=O)OC2COC(c3cc(NC(=O)Cc4cc(F)cc(F)c4)n[nH]3)C2)CCOC1` (centres unmarked) [Compound 52], for which the IC50 amounted to 1.6 nM against CDK2/CyclinE1; 111 nM on CDK1/CyclinB1; 1000 nM against CDK4/CyclinD1; 1000 nM against CDK6/CyclinD3; 1000 nM on GSK3β.
Take `CC1(NC(=O)OC2COC(c3cc(NC(=O)Cc4cc(F)cc(F)c4)n[nH]3)C2)CCOC1` (centres unmarked) [Compound 53]: the values for the half-inhibitory concentration (IC50) against CDK2/CyclinE1 and on CDK1/CyclinB1 were 2.1 nM and 134 nM, respectively.
For `CC(C)(C)NC(=O)O[C@@H]1CC[C@H](c2cc(NC(=O)[C@@H]3CCN(S(C)(=O)=O)C3)n[nH]2)C1` [Compound 84], the IC50 was 1.6 nM against CDK2/CyclinE1 and 74 nM with OVCAR3 cancer cells.
With `Cn1nccc1C(=O)Nc1cc([C@@H]2C[C@H](OC(=O)NC34CC(C3)C4)CO2)[nH]n1` [Compound 97], the IC50 at CDK2/CyclinE1 stood at 1.1 nM; on CDK1/CyclinB1, 72.6 nM; on GSK3β it was 381 nM.
For `CC[C@H](C)NC(=O)O[C@@H]1CO[C@H](c2cc(NC(=O)c3ccnn3C)n[nH]2)C1` [Compound 100], the IC50 was 1.5 nM against CDK2/CyclinE1, 74.8 nM against CDK1/CyclinB1 and 706 nM at GSK3β.
Turning to `Cn1nccc1C(=O)Nc1cc([C@@H]2C[C@H](OC(=O)NC(C)(C)C)CO2)[nH]n1` [Compound 102], the IC50 at CDK2/CyclinE1 was determined as 2.5 nM; on CDK1/CyclinB1 it was 133 nM.
Take `CC(C)NC(=O)O[C@@H]1CC[C@H](c2cc(NC(=O)C34CC(C#N)(C3)C4)n[nH]2)C1` [Compound 109]: the IC50 on CDK2/CyclinE1 was 0.9 nM; in the test on OVCAR3 cancer cells, 237 nM.
Take `Cn1nccc1C(=O)Nc1cc([C@H]2C[C@@H](OC(=O)NC3CCC3)CO2)[nH]n1` [Compound 122]: the values for the IC50 against CDK2/CyclinE1 and at CDK1/CyclinB1 were 1.9 nM and 89.4 nM, respectively.
In the same order, the values of `CC(C)NC(=O)O[C@@H]1CC[C@H](c2cc(NC(=O)C34CC(C(=O)NO)(C3)C4)n[nH]2)C1` [Compound 126] are 2.5 nM and 142 nM.
On the same counts, the results for `CC(C)NC(=O)O[C@@H]1CC[C@H](C2=CC(NC(=O)[C@H]3C[C@@H]3[C@H](C)O)=NC2)C1` [Compound 136] are 1.2 nM and 64.6 nM.
As for `C#C[C@H]1C[C@@H]1C(=O)Nc1cc([C@H]2CC[C@@H](OC(=O)NC3(C)COC3)C2)[nH]n1` [Compound 180], the IC50 worked out at 1.1 nM at CDK2/CyclinE1, 69.4 nM on CDK1/CyclinB1 and 210 nM on CDK9/CyclinT1.
On to `O=C(NC12CC(F)(C1)C2)O[C@@H]1CC[C@H](c2cc(NC(=O)[C@@H]3CCN(S(=O)(=O)C4CC4)C3)n[nH]2)C1` [Compound 181], for which the half-inhibitory concentration (IC50) on CDK2/CyclinE1 stood at 0.8 nM; against CDK1/CyclinB1, 34.4 nM.
On the same counts, the results for `C#CC1(NC(=O)O[C@H]2CO[C@@H](c3cc(NC(=O)c4ccnn4C)n[nH]3)C2)CCC1` [Compound 189] are 1 nM and 58.6 nM.
With `CCC(C)(C)NC(=O)O[C@@H]1CO[C@H](c2cc(NC(=O)c3ccnn3C)n[nH]2)C1` [Compound 191], the concentration for half-maximal inhibition (IC50) at CDK2/CyclinE1 amounted to 1.2 nM; at CDK1/CyclinB1, 101 nM; at CDK9/CyclinT1, 131 nM.
In turn, `COCc1cc(C(=O)Nc2cc([C@H]3CC[C@@H](OC(=O)N[C@H]4C[C@]5(CCOC5)C4)C3)[nH]n2)n(C)n1` [Compound 202] returned a half-maximal inhibitory concentration (IC50) against CDK2/CyclinE1 of 3.9 nM.
Same read-out and setting: the result for `CCC1(NC(=O)O[C@H]2CO[C@@H](c3cc(NC(=O)c4ccnn4C)n[nH]3)C2)CC1` [Compound 203] reads 0.9 nM; that for `CCC1(NC(=O)O[C@@H]2CO[C@H](c3cc(NC(=O)c4ccnn4C)n[nH]3)C2)CC1` [Compound 204], 1 nM; that for `Cn1nccc1C(=O)Nc1cc([C@H]2C[C@@H](OC(=O)NC3(CF)CCC3)CO2)[nH]n1` [Compound 211], 1.4 nM.
On CDK2/CyclinE1, `Cn1nccc1C(=O)Nc1cc([C@@H]2C[C@H](OC(=O)NC3(CF)CCC3)CO2)[nH]n1` [Compound 216] had an IC50 of 1.8 nM.
Still for that read-out and setting: as for `Cc1c(C2CC2C(=O)Nc2cc([C@H]3CC[C@@H](OC(=O)NC4(C)CCC4)C3)[nH]n2)cnn1C` (some centres unmarked) [Compound 217], the figure is 29.7 nM.
Same read-out and setting: as for `Cc1c([C@@H]2C[C@H]2C(=O)Nc2cc([C@H]3CC[C@@H](OC(=O)NC4(C)CCC4)C3)[nH]n2)cnn1C` [Compound 218], the figure is 0.6 nM; as for `C#C[C@H]1C[C@@H]1C(=O)Nc1cc([C@@H]2CC[C@H](OC(=O)NC3(C)CCC3)C2)[nH]n1` [Compound 219], 0.5 nM.
As to `C#C[C@H]1C[C@@H]1C(=O)Nc1cc([C@@H]2CC[C@H](OC(=O)NC3(C)COC3)C2)[nH]n1` [Compound 222], the IC50 at CDK2/CyclinE1 was 1.1 nM.
`C#C[C@H]1C[C@@H]1C(=O)Nc1cc([C@@H]2CC[C@H](OC(=O)NC3(C)CC3)C2)[nH]n1` [Compound 223] gave a half-inhibitory concentration (IC50) against CDK2/CyclinE1 of 0.5 nM.
